From patent US12628822B2, “Plant pathogen defence elicitors” (UNIVERSITÉ LIBRE DE BRUXELLES, priority 2020, dated 2026)

Test system: Arabidopsis transcriptome
Assay: cDNA microarray analysis of early transcriptomic changes in Arabidopsis seedlings
Format: in vivo, Arabidopsis thaliana
Experimental: Arabidopsis thaliana Columbia (Col-0) was the accession used for all the experiments. Seeds were surface sterilised by subsequent treatment with 50% v/v Et-OH and 3% bleach solution in agitation for 5 and 10 min, respectively. Seeds were then washed three times with distilled water and stratified for 3 days at 4° C. in the dark. For qPCR analysis and microarray experiments, seeds were sown on square petri dishes ([…]) containing half strength Murashige and Skoog (MS) salt, 2.5 mM MES, 1% w/v sucrose and 0.8% w/v plant agar. The experiments were performed using 14-day old seedlings grown vertically in a controlled growth cabinet with short day conditions ( 8/16 h light/dark; 100 μmol photons m^−2 s^−1) at 22±0.5° C. Treatments were performed by applying 40-50 μl of fresh-prepared and filtered solution per seedling.
For RNA extraction, 14-day old leaves from ten independent plants were collected at the indicated time point after treatments, pooled and frozen in liquid nitrogen. Total RNA was extracted from 100 mg of ground-frozen samples using the Maxwell® LEV Plant RNA Kit (Promega, Madison, WI, USA) and the RNA integrity was determined through NanoDrop 2000 UV-Vis Spectrophotometer (Thermo Scientific, Loughborough, UK). First-strand cDNA was synthesized by using SOLIScript® RT cDNA synthesis MIX (Solis Biodyne, Tartu, Estonia) and qPCRs were performed using SYBR® Selected MasterMix 2× (Applied Biosystems, Thermo Fisher Scientific, Waltham, USA), following the manufacturers' protocols. The cycling conditions consisted of an initial 7 min at 95° C., followed by 40 two-step cycles at 95° C. for 5 s and at 60° C. for 30 s. Melting curve analysis was performed after cycle completion to validate amplicon identity. Relative expression levels were calculated following the standard curve-based method (Larionov et al. A standard curve based method for relative real time PCR data processing, BMC Bioinformatics. 2005, vol. 6, 1) by using ACTIN as reference. Gene-specific primers used in this work are indicated below.
RNA sample preparation for microarray hybridization was carried out as described in the Applied Biosystems™ GeneChip™ Whole Transcript (WT) PLUS Reagent Kit User Guide (Thermo Fisher Scientific, Waltham, MA, USA). Briefly, 200 ng of total RNA was used to generate double-stranded cDNA. Twelve μg of subsequently synthesized cRNA were purified and reverse transcribed into single-stranded (ss)cDNA, where unnatural dUTP residues were incorporated. Purified and labelled sscDNAs were hybridised to Arabidopsis Gene 1.0 ST arrays (Affymetrix, Santa Clara, CA, USA) and the fluorescent signals were measured with an Applied Biosystems™ GeneChip Scanner 3000 7 G System. Sample processing was performed at a Genomics Core Facility, “KFB—Center of Excellence for Fluorescent Bioanalytics” (Regensburg, Germany).
Normalised probe set signals in log2 scale were calculated by using the RMA algorithm. Average linkage hierarchical clusters of differentially expressed genes were generated by using Cluster 3.0 and visualized by java TreeView.
In Arabidopsis, the DAMPs-dependent elicitation of PTI is known to be accompanied by a deep immune gene transcriptional reprogramming. […] The transcriptomic analysis was carried out by using Arabidopsis 1.0 ST microarray chip (Affymetrix, Santa Clara, CA, USA) and Differentially Expressed Genes (DEGs) were selected using two criteria: log2 expression ratios ≥1.5-fold or […] and Student's t-test p-value≤0.05.

[1] = 100 μM, 1 h, 14-day old Arabidopsis plants
[2] = 100 μM, 1 h, Col-0 plants, vs control

OC[C@H]1O[C@@H](O[C@H]2[C@H](O)[C@@H](O)[C@H](O)O[C@@H]2CO)[C@H](O)[C@@H](O)[C@@H]1O [Cellobiose, β-D-glucopyranosyl(1→4)D-glucopyranose]
changes in expression, number of differentially expressed genes [1]: 440 genes
downregulated genes [1]: 94 genes
upregulated genes [1]: 346 genes
AT1G02360 putative chitinase gene expression [2]: 1.03 fold change
AT1G02920 glutathione S-transferase F7 gene expression [2]: 1.10 fold change
AT1G02930 glutathione S-transferase F6 gene expression [2]: 1.18 fold change
AT1G03220 aspartyl protease-like protein gene expression [2]: 1.08 fold change
AT1G07400 class I heat shock protein gene expression [2]: 2.58 fold change
AT1G11100 SNF2, helicase and zinc-finger domain-containing protein gene expression [2]: 1.70 fold change
AT1G13520 hypothetical protein gene expression [2]: 2.05 fold change
AT1G14540 peroxidase 4 gene expression [2]: 1.22 fold change
AT1G16110 wall associated kinase-like 6 gene expression [2]: 1.46 fold change
AT1G18382 gene expression [2]: 1.39 fold change
AT1G18570 myb domain protein 51 gene expression [2]: 1.46 fold change
AT1G19020 hypothetical protein gene expression [2]: 1.68 fold change
AT1G24145 hypothetical protein gene expression [2]: 1.15 fold change
AT1G27020 hypothetical protein gene expression [2]: 1.06 fold change
AT1G30700 FAD-binding Berberine family protein gene expression [2]: 1.73 fold change
AT1G30755 hypothetical protein gene expression [2]: 1.08 fold change
AT1G36622 hypothetical protein gene expression [2]: 1.62 fold change
AT1G36640 hypothetical protein gene expression [2]: 1.27 fold change
AT1G49000 hypothetical protein gene expression [2]: 1.67 fold change
AT1G51790 leucine-rich repeat protein kinase-like protein gene expression [2]: 1.99 fold change
AT1G51800 putative leucine-rich repeat protein kinase gene expression [2]: 2.44 fold change
AT1G51820 SIF2 gene expression [2]: 6.99 fold change
AT1G51850 Leucine-rich repeat protein kinase family protein gene expression [2]: 4.14 fold change
AT1G51890 probable LRR receptor-like protein kinase gene expression [2]: 1.91 fold change
AT1G51920 hypothetical protein gene expression [2]: 1.55 fold change
AT1G52200 PLAC8 family protein gene expression [2]: 1.57 fold change
AT1G53625 hypothetical protein gene expression [2]: 1.55 fold change
AT1G54050 CIII heat shock protein 17.4 gene expression [2]: 1.36 fold change
AT1G55450 S-adenosyl-L-methionine-dependent methyltransferases superfamily protein gene expression [2]: 1.19 fold change
AT1G59865 hypothetical protein gene expression [2]: 2.57 fold change
AT1G61360 G-type lectin S-receptor-like serine/threonine-protein kinase gene expression [2]: 1.18 fold change
AT1G61560 MLO-like protein 6 gene expression [2]: 1.14 fold change
AT1G64400 long-chain acyl-CoA synthetase gene expression [2]: 1.18 fold change
AT1G65845 hypothetical protein gene expression [2]: 1.99 fold change
AT1G74310 chaperone protein ClpB1 gene expression [2]: 2.87 fold change
AT1G79680 wall-associated receptor kinase-like 10 gene expression [2]: 1.62 fold change
AT2G02010 glutamate decarboxylase 4 gene expression [2]: 1.11 fold change
AT2G15220 basic secretory protein family protein gene expression [2]: 1.08 fold change
AT2G17740 cysteine/histidine-rich C1 domain-containing protein gene expression [2]: 1.04 fold change
AT2G19190 FLG22-induced receptor-like kinase 1 gene expression [2]: 1.38 fold change
AT2G22880 VQ motif-containing protein gene expression [2]: 1.35 fold change
AT2G26150 heat stress transcription factor A-2 gene expression [2]: 2.19 fold change
AT2G26560 phospholipase A 2A gene expression [2]: 2.02 fold change
AT2G27660 cysteine/histidine-rich C1 domain-containing protein gene expression [2]: 1.63 fold change
AT2G29500 HSP20 family protein gene expression [2]: 3.11 fold change
AT2G36220 hypothetical protein gene expression [2]: 1.44 fold change
AT2G36690 2-oxoglutarate (2OG) and Fe(II)-dependent oxygenase superfamily protein gene expression [2]: 1.99 fold change
AT2G38870 PR-6 proteinase inhibitor family protein gene expression [2]: 1.27 fold change
AT2G39200 protein MILDEW RESISTANCE LOCUS O 12 gene expression [2]: 2.09 fold change
AT2G39210 major facilitator protein gene expression [2]: 1.67 fold change
AT2G39518 hypothetical protein gene expression [2]: 2.22 fold change
AT2G43620 chitinase family protein gene expression [2]: 2.15 fold change
AT2G44490 PEN2 gene expression [2]: 1.20 fold change
AT2G46240 BCL-2-associated athanogene 6 gene expression [2]: 2.00 fold change
AT3G08970 J domain protein ATERDJ3A gene expression [2]: 2.46 fold change
AT3G09350 protein Fes1A gene expression [2]: 2.18 fold change
AT3G12580 heat shock protein 70-4 gene expression [2]: 3.24 fold change
AT3G12910 no apical meristem domain-containing transcriptional regulator gene expression [2]: 1.36 fold change
AT3G14200 chaperone DnaJ-domain containing protein gene expression [2]: 2.55 fold change
AT3G15500 ATAF-like NAC-domain transcription factor gene expression [2]: 1.20 fold change
AT3G16030 G-type lectin S-receptor-like serine/threonine-protein kinase CES101 gene expression [2]: 1.47 fold change
AT3G22060 Receptor-like protein kinase-related family protein gene expression [2]: 1.31 fold change
AT3G24500 multiprotein-bridging factor 1c gene expression [2]: 1.75 fold change
AT3G26210 cytochrome P450 71B23 gene expression [2]: 1.35 fold change
AT3G46280 protein kinase-like protein gene expression [2]: 4.51 fold change
AT3G51910 heat stress transcription factor A-7a gene expression [2]: 1.35 fold change
AT3G54420 chitinase class IV gene expression [2]: 1.74 fold change
AT4G01750 rhamnogalacturonan xylosyltransferase 2 gene expression [2]: 2.59 fold change
AT4G11890 receptor-like cytosolic kinase ARCK1 gene expression [2]: 1.75 fold change
AT4G12400 carboxylate clamp-tetratricopeptide repeat protein gene expression [2]: 3.23 fold change
AT4G15233 ABC transporter G family member 42 gene expression [2]: 1.66 fold change
AT4G21120 amino acid transporter 1 gene expression [2]: 1.07 fold change
AT4G22470 protease inhibitor/seed storage/lipid transfer protein (LTP) family protein gene expression [2]: 1.77 fold change
AT4G22710 cytochrome P450, family 706, subfamily A, polypeptide 2 gene expression [2]: 1.15 fold change
AT4G23220 cysteine-rich receptor-like protein kinase 14 gene expression [2]: 1.69 fold change
AT4G23280 putative cysteine-rich receptor-like protein kinase 20 gene expression [2]: 1.14 fold change
AT4G23570 phosphatase SGT1a gene expression [2]: 2.22 fold change
AT4G25110 metacaspase 2 gene expression [2]: 1.74 fold change
AT4G26200 1-aminocyclopropane-1-carboxylate synthase 7 gene expression [2]: 2.14 fold change
AT4G27280 EF-hand, calcium binding motif-containing protein gene expression [2]: 1.33 fold change
AT4G38550 phospholipase like protein (PEARLI 4) family gene expression [2]: 1.60 fold change
AT5G05300 hypothetical protein gene expression [2]: 1.78 fold change
AT5G10695 hypothetical protein gene expression [2]: 2.27 fold change
AT5G14470 GHMP kinase family protein gene expression [2]: 1.21 fold change
AT5G15870 glycosyl hydrolase family 81 protein gene expression [2]: 1.14 fold change
AT5G19230 GPI-anchored glycoprotein membrane precursor gene expression [2]: 1.24 fold change
AT5G35320 hypothetical protein gene expression [2]: 1.02 fold change
AT5G37600 glutamine synthetase 1; 1 gene expression [2]: 1.56 fold change
AT5G37670 heat shock protein 15.7 gene expression [2]: 1.04 fold change
AT5G39020 putative receptor-like protein kinase gene expression [2]: 1.02 fold change
AT5G39580 peroxidase 62 gene expression [2]: 3.82 fold change
AT5G44070 glutathione gamma-glutamylcysteinyltransferase 1 gene expression [2]: 1.44 fold change
AT5G44585 hypothetical protein gene expression [2]: 2.20 fold change
AT5G44910 Toll-Interleukin-Resistance domain-containing protein gene expression [2]: 1.10 fold change
AT5G46050 peptide transporter 3 gene expression [2]: 1.74 fold change
AT5G48530 hypothetical protein gene expression [2]: 2.07 fold change
AT5G48540 receptor-like protein kinase-related family protein gene expression [2]: 1.85 fold change
AT5G48570 peptidyl-prolyl cis-trans isomerase FKBP65 gene expression [2]: 3.39 fold change
AT5G51440 heat shock protein 23.5 gene expression [2]: 1.36 fold change
AT5G52640 heat shock protein 90.1 gene expression [2]: 3.70 fold change
AT5G57220 cytochrome P450, family 81, subfamily F, polypeptide 2 gene expression [2]: 1.07 fold change
AT5G62020 heat stress transcription factor B-2a gene expression [2]: 1.00 fold change
AT5G64120 peroxidase 71 gene expression [2]: 1.42 fold change
AT5G67450 zinc-finger protein 1 gene expression [2]: 1.44 fold change
MYB51 (AT1G18570) Expression (100 μM, 1 h, microarray): 1.46 Fold change (treatment/CTR)
MYB73 (AT4G37260) Expression (100 μM, 1 h, microarray): 1.06 Fold change (treatment/CTR)
NAC047 (AT3G04070) Expression (100 μM, 1 h, microarray): 1.81 Fold change (treatment/CTR)
NAC055 (AT3G15500) Expression (100 μM, 1 h, microarray): 1.20 Fold change (treatment/CTR)
NAC057 (AT3G17730) Expression (100 μM, 1 h, microarray): 1.40 Fold change (treatment/CTR)
NAC058 (AT3G18400) Expression (100 μM, 1 h, microarray): 1.41 Fold change (treatment/CTR)
NAC078 (AT5G04410) Expression (100 μM, 1 h, microarray): 1.31 Fold change (treatment/CTR)
Target of MYB protein 1 (AT1G76970) Expression (100 μM, 1 h, microarray): 1.64 Fold change (treatment/CTR)
WRKY11 (AT4G31550) Expression (100 μM, 1 h, microarray): 1.95 Fold change (treatment/CTR)
WRKY15 (AT2G23320) Expression (100 μM, 1 h, microarray): −1.06 Fold change (treatment/CTR)
WRKY18 (AT4G31800) Expression (100 μM, 1 h, microarray): 4.02 Fold change (treatment/CTR)
WRKY22 (AT4G01250) Expression (100 μM, 1 h, microarray): 2.34 Fold change (treatment/CTR)
WRKY30 (AT5G24110) Expression (100 μM, 1 h, microarray): 1.30 Fold change (treatment/CTR)
WRKY33 (AT2G38470) Expression (100 μM, 1 h, microarray): 1.33 Fold change (treatment/CTR)
WRKY40 (AT1G80840) Expression (100 μM, 1 h, microarray): −1.05 Fold change (treatment/CTR)
WRKY61 (AT1G18860) Expression (100 μM, 1 h, microarray): −1.05 Fold change (treatment/CTR)
WRKY72 (AT5G15130) Expression (100 μM, 1 h, microarray): 1.41 Fold change (treatment/CTR)
LOX4 (AT1G72520) gene expression, Microarray (vs CTR): 1.68 fold change
MPK3 (AT3G45640) gene expression, Microarray (vs CTR): 1.22 fold change
MPK6 (AT2G43790) gene expression, Microarray (vs CTR): −1.06 fold change
PAD3 (AT3G26830) gene expression, Microarray (vs CTR): −1.04 fold change
PEN3 (AT1G59870) gene expression, Microarray (vs CTR): 1.55 fold change
PR1 (AT2G14610) gene expression, Microarray (vs CTR): 1.91 fold change
WRKY18 (AT4G31800) gene expression, Microarray (vs CTR): 4.02 fold change
WRKY22 (AT4G01250) gene expression, Microarray (vs CTR): 2.34 fold change
WRKY33 (AT2G38470) gene expression, Microarray (vs CTR): 1.33 fold change
IGMT2 (At1G21120) gene expression, Microarray (vs mock): −1.14 fold change
